The experiment concerns durch CCl₄ induzierte Leberfibrose in Ratten. The experiment is described as follows: CCl₄-induced liver fibrosis in rats, 8-week treatment (liver hydroxyproline, serum procollagen III peptide, serum bilirubin). Type of experiment: in vivo. The conditions noted are these: 8 weeks. The source says: Zum Nachweis der effektiven Hemmung der Prolin- und Lysinhydroxylase durch die erfindungsgemäßen Verbindungen wurden die Hydroxyprolin-Konzentrationen in der Leber und die Prokollagen-III-Peptid-Konzentrationen im Serum von • a) unbehandelten Ratten (Kontrolle) • b) Ratten, denen Tetrachlorkohlenstoff verabreicht wurde (CCl₄-Kontrolle) • c) Ratten, denen zunächst CCl₄ und anschließend eine erfindungsgemäße Verbindung verabreicht wurde gemessen (diese Testmethode wird beschrieben von Rouiller, C., experimental toxic injury of the liver; in The Liver, C. Rouiller, Vol. 2, S. 335-476, New York, Academic Press, 1964).
Die Wirkstärke der erfindungsgemäßen Verbindungen wurde als prozentuale Hemmung der Leber-Hydroxyprolin- und Prokollagen-III-Peptidsynthese nach oraler Gabe im Vergleich zu Kontrolltieren, denen nur Tetrachlorkohlenstoff verabreicht wurde (CCl₄-Kontrolle), bestimmt. Die Ergebnisse sind in Tabelle 1 aufgeführt. Tabelle 1

With `CC(=O)NNC(=O)c1ccnc(C(=O)NNC(C)=O)c1` [Example 1, Pyridin-2,4-dicarbonsäuredi-(methylcarbonylhydrazid)], under “Bilirubin in Serum (total), rats given CCl₄ then compound, daily oral dose 50 mg/kg”, the Bilirubin is recorded as 3,0 µM. Moreover, under “Hydroxyprolin Gehalt in der Leber, rats given CCl₄ then compound, daily oral dose 50 mg/kg”, the Hyp is listed as 0,181 µg/ml. Moreover, the PIIIP (Prokollagen III N-peptid im Serum, rats given CCl₄ then compound, daily oral dose 50 mg/kg) came out at 29 ng/mL. Besides, the “Hyp Zunahme (absolut) gegen Kontrolle” value (liver hydroxyproline, absolute increase versus untreated control, 50 mg/kg oral daily) is listed as 0,125 µg/ml. The “Hyp prozentuale Abnahme gegen CCl₄-Behandlung” value (liver hydroxyproline, 50 mg/kg oral daily) was 27%. For the setting “mean of the percent decreases of bilirubin, PIIIP and Hyp versus CCl₄ treatment, 50 mg/kg oral daily”, the “Mittelwert: Gesamtgehalt an Bilirubin, PIIIP und Hyp, % Abweichung” value was “(33 ± 13 %)”. Moreover, the “PIIIP Zunahme (absolut) gegen Kontrolle” value (serum procollagen III N-peptide, absolute increase versus untreated control, 50 mg/kg oral daily) was 18 ng/mL. Besides, under “serum procollagen III N-peptide, 50 mg/kg oral daily”, the “PIIIP prozentuale Abnahme gegen CCl₄-Behandlung” value amounted to 14%. Also, under “serum total bilirubin, absolute increase versus untreated control, 50 mg/kg oral daily”, the “Bilirubin Zunahme (absolut) gegen Kontrolle” value is 1,1 µM. Where the note is “serum total bilirubin, 50 mg/kg oral daily”, the “Bilirubin prozentuale Abnahme gegen CCl₄-Behandlung” value amounted to 58%.

Source of the values: patent EP0430029A2, “Pyridin-2,4- and 2,5-dicarboxylic acid diamides, process for their preparation and their use” (HOECHST AKTIENGESELLSCHAFT, priority 1989, dated 1991).
